Experimental data published in patent US7932271B2, “Heterocyclic methyl sulfone derivative” (Daiichi Pharmaceutical Co., Ltd., priority 2003, dated 2011).
Structures can show the parent of a compound that is named as a salt.

melting point	SMILES
> 250 °C (dec.)	NCCNC(=O)c1ccc(C(c2cc(F)ccc2F)S(=O)(=O)c2ccc(Cl)cc2)nc1 (stereo not shown) (as salt: hydrochloride) [Example 139, N-(2-Aminoethyl)-6-[(4-chlorophenylsulfonyl)(2,5-difluorophenyl)methyl]nicotinamide]
164 to 166 °C	NCCNC(=S)c1ccc(C(c2cc(F)ccc2F)S(=O)(=O)c2ccc(Cl)cc2)nc1 (stereo not shown) (as salt: hydrochloride) [Example 142, N-(2-Aminoethyl)-6-[(4-chlorophenylsulfonyl)(2,5-difluorophenyl)methyl]thionicotinamide]
193 to 195 °C	NCCCNc1cc(C(c2cc(F)ccc2F)S(=O)(=O)c2ccc(Cl)cc2)c(Cl)cn1 (stereo not shown) (as salt: hydrochloride) [Example 173, N-[5-Chloro-4-[(4-chlorophenylsulfonyl)-(2,5-difluorophenyl)methyl]pyridin-2-yl]propane-1,3-diamine dihydrochloride]
163 to 166 °C	NCCNc1cc(C(c2cc(F)ccc2F)S(=O)(=O)c2ccc(Cl)cc2)c(Cl)cn1 (stereo not shown) (as salt: hydrochloride) [Example 193, N-[5-Chloro-4-[(4-chlorophenylsulfonyl)-(2,5-difluorophenyl)methyl]pyridin-2-yl]ethane-1,2-diamine dihydrochloride]
147 to 148 °C	O=S(=O)(c1ccc(Cl)cc1)C(c1cc(F)ccc1F)c1cc(Cl)ncc1Cl (stereo not shown) (hydrate or solvate) [Example 57, 2,5-Dichloro-4-[(4-chlorophenylsulfonyl)-(2,5-difluorophenyl)methyl]pyridine 0.5 hydrate]
200 to 205 °C	O=C(O)CCNc1cc(C(c2cc(F)ccc2F)S(=O)(=O)c2ccc(Cl)cc2)c(Cl)cn1 (stereo not shown) (hydrate or solvate) [Example 155, 3-[[5-Chloro-4-[(4-chlorophenylsulfonyl)-(2,5-difluorophenyl)methyl]pyridin-2-yl]amino]propionic acid]
150 to 152 °C	O=S(=O)(c1ccc(Cl)cc1)C(c1cc(F)ccc1F)C1CCSCC1 (stereo not shown) [Example 35, 4-[[(4-Chlorophenyl)sulfonyl](2,5-difluorophenyl)methyl]tetrahydrothiopyrane]
193 to 196 °C	CC(C)(C)OC(=O)N1CCC(C(c2cc(F)ccc2F)S(=O)(=O)c2ccc(Cl)cc2)CC1 (stereo not shown) [Example 37, t-Butyl 4-[[(4-chlorophenyl)sulfonyl](2,5-difluorophenyl)methyl]-1-piperidinecarboxylate]
186 to 187 °C	O=S(=O)(Cc1ccc(C(c2cc(F)ccc2F)S(=O)(=O)c2ccc(Cl)cc2)nc1)c1ccc(Cl)cc1 (stereo not shown) [Example 40, 2-[(4-Chlorophenylsulfonyl)-(2,5-difluorophenyl)methyl]-5-[(4-chlorophenylsulfonyl)methyl]pyridine]
70 to 73 °C	Fc1ccc(F)c(C(Sc2ccc(Cl)cc2)c2ccc(C3OCCO3)cn2)c1 (stereo not shown) [Example 41, 2-[(4-Chlorophenylthio)-(2,5-difluorophenyl)methyl]-5-(1,3-dioxolan-2-yl)pyridine]
145 to 146 °C	COC(=O)/C=C/c1ccc(C(c2cc(F)ccc2F)S(=O)(=O)c2ccc(Cl)cc2)nc1 (stereo not shown) [Example 44, Methyl 3-[6-[(4-chlorophenylsulfonyl)-(2,5-difluorophenyl)methyl]pyridin-3-yl]acrylate]
121 to 123 °C	COC(=O)CCc1ccc(C(c2cc(F)ccc2F)S(=O)(=O)c2ccc(Cl)cc2)nc1 (stereo not shown) [Example 45, Methyl 3-[6-[(4-chlorophenylsulfonyl)-(2,5-difluorophenyl)methyl]pyridin-3-yl]propionate]
113 to 114 °C	O=S(=O)(c1ccc(Cl)cc1)C(c1ccc(CN2CCCCC2)cn1)c1cc(F)ccc1F (stereo not shown) [Example 48, 2-[(4-Chlorophenylsulfonyl)-(2,5-difluorophenyl)methyl]-5-(piperidin-1-ylmethyl)pyridine]
120 to 121 °C	O=S(=O)(c1ccc(Cl)cc1)C(c1ccc(CN2CCOCC2)cn1)c1cc(F)ccc1F (stereo not shown) [Example 49, 4-[[6-[(4-Chlorophenylsulfonyl)-(2,5-difluorophenyl)methyl]pyridin-3-yl]methyl]morpholine]
> 230 °C	O=C(O)c1ccc(C(c2cc(F)ccc2F)S(=O)(=O)c2ccc(Cl)cc2)nc1 (stereo not shown) [Example 50, [6-[(4-Chlorophenylsulfonyl)-(2,5-difluorophenyl)methyl]pyridin-3-yl]carboxylic acid]
183 to 184 °C	O=S(=O)(c1ccc(Cl)cc1)C(c1ccc[n+]([O-])c1)c1cc(F)ccc1F (stereo not shown) [Example 51, 3-[(4-Chlorophenylsulfonyl)-(2,5-difluorophenyl)methyl]pyridine-N-oxide]
211 to 212 °C	O=S(=O)(c1ccc(Cl)cc1)C(c1cc[n+]([O-])cc1)c1cc(F)ccc1F (stereo not shown) [Example 52, 4-[(4-Chlorophenylsulfonyl)-(2,5-difluorophenyl)methyl]pyridine-N-oxide]
70 to 72 °C	Fc1ccc(F)c(C(Sc2ccc(Cl)cc2)c2ccncc2Cl)c1 (stereo not shown) [Example 53, 3-Chloro-4-[(4-chlorophenylthio)-(2,5-difluorophenyl)methyl]pyridine]
128 to 129 °C	Fc1ccc(F)c(C(Sc2ccc(Cl)cc2)c2cc(Cl)ncc2Cl)c1 (stereo not shown) [Example 54, 2,5-Dichloro-4-[(4-chlorophenylthio)-(2,5-difluorophenyl)methyl]pyridine]
177 to 178 °C	CN(C)S(=O)(=O)NCc1ccc(C(c2cc(F)ccc2F)S(=O)(=O)c2ccc(Cl)cc2)nc1 (stereo not shown) [Example 68, N-[[6-[(4-Chlorophenylsulfonyl)(2,5-difluorophenyl)methyl]pyridin-3-yl]methyl]-N′,N′-dimethylsulfamide]
193 to 194 °C	CCOC(=O)C(=O)NCc1ccc(C(c2cc(F)ccc2F)S(=O)(=O)c2ccc(Cl)cc2)nc1 (stereo not shown) [Example 69, Ethyl 2-[[6-[(4-Chlorophenylsulfonyl)(2,5-difluorophenyl)methyl]pyridin-3-yl]methylamino]-2-oxoacetate]
217 to 218 °C	Cc1ccc(S(=O)(=O)NCC(=O)NCc2ccc(C(c3cc(F)ccc3F)S(=O)(=O)c3ccc(Cl)cc3)nc2)cc1 (stereo not shown) [Example 70, N-[[6-[(4-Chlorophenylsulfonyl)(2,5-difluorophenyl)methyl]pyridin-3-yl]methyl]-2-(4-methylphenylsulfonylamino)acetamide]
177 to 179 °C	CN(C)CC(=O)NCc1ccc(C(c2cc(F)ccc2F)S(=O)(=O)c2ccc(Cl)cc2)nc1 (stereo not shown) [Example 71, N-[[6-[(4-Chlorophenylsulfonyl)(2,5-difluorophenyl)methyl]pyridin-3-yl]methyl]-2-dimethylaminoacetamide]

Continued, compound first:

SMILES	melting point
CN1CCN(C(=O)CCc2cnc(C(c3cc(F)ccc3F)S(=O)(=O)c3ccc(Cl)cc3)c(F)c2)CC1.Cl (stereo not shown)	243 to 245 °C
O=c1oc2ccccc2c(O)c1C(Sc1ccc(Cl)cc1)c1cc(F)ccc1F (stereo not shown)	146 to 147 °C
Cl.O=S(=O)(c1ccc(Cl)cc1)C(c1cc(F)ccc1F)C1CCNCC1 (stereo not shown)	184 to 190 °C
O=S(=O)(c1ccc(Cl)cc1)C(c1ccncc1)C1CCCC1 (stereo not shown) [Example 2, 4-[(4-Chlorophenylsulfonyl)(cyclopentyl)methyl]pyridine]	133 to 135 °C
O=S(=O)(c1ccc(Cl)cc1)C(c1ccncc1)C1CCOCC1 (stereo not shown) [Example 3, 4-[(4-Chlorophenylsulfonyl)(tetrahydropyran-4-yl)methyl]pyridine]	208 to 209 °C
CN1CCC(C(c2ccncc2)S(=O)(=O)c2ccc(Cl)cc2)CC1 (stereo not shown) [Example 5, 4-[(4-Chlorophenylsulfonyl)(1-methylpiperidin-4-yl)methyl]pyridine]	176 to 177 °C
O=S(=O)(c1ccc(Cl)cc1)C(c1ccccn1)c1cc(F)ccc1F (stereo not shown) [Example 13, 2-[[(4-Chlorophenyl)sulfonyl]-(2,5-difluorophenyl)methyl]pyridine]	171 to 172 °C
Cc1cccnc1C(c1cc(F)ccc1F)S(=O)(=O)c1ccc(Cl)cc1 (stereo not shown) [Example 14, 2-[[(4-Chlorophenyl)sulfonyl]-(2,5-difluorophenyl)methyl]-3-methylpyridine]	142 to 143 °C
Cc1ccc(C(c2cc(F)ccc2F)S(=O)(=O)c2ccc(Cl)cc2)nc1 (stereo not shown) [Example 15, 2-[[(4-Chlorophenyl)sulfonyl]-(2,5-difluorophenyl)methyl]-5-methylpyridine]	159 to 160 °C
Cc1ccnc(C(c2cc(F)ccc2F)S(=O)(=O)c2ccc(Cl)cc2)c1 (stereo not shown) [Example 16, 2-[[(4-Chlorophenyl)sulfonyl]-(2,5-difluorophenyl)methyl]-4-methylpyridine]	116 to 117 °C
COc1cccnc1C(c1cc(F)ccc1F)S(=O)(=O)c1ccc(Cl)cc1 (stereo not shown) [Example 17, 2-[[(4-Chlorophenyl)sulfonyl]-(2,5-difluorophenyl)methyl]-3-methoxypyridine]	184 to 185 °C
C=CCOc1cccnc1C(c1cc(F)ccc1F)S(=O)(=O)c1ccc(Cl)cc1 (stereo not shown) [Example 18, 3-Allyloxy-2-[[(4-chlorophenyl)sulfonyl]-(2,5-difluorophenyl)methyl]pyridine]	119 to 120 °C
O=S(=O)(c1ccc(Cl)cc1)C(c1cncnc1)c1cc(F)ccc1F (stereo not shown) [Example 21, 5-[[(4-Chlorophenyl)sulfonyl]-(2,5-difluorophenyl)methyl]pyrimidine]	136 to 137 °C
Cn1c(Cl)cnc1C(c1cc(F)ccc1F)S(=O)(=O)c1ccc(Cl)cc1 (stereo not shown) [Example 29, 2-[[(4-Chlorophenyl)sulfonyl]-(2,5-difluorophenyl)methyl]-1-methyl-5-chloro-1H-imidazole]	179 to 180 °C
O=S(=O)(c1ccc(Cl)cc1)C(c1nccs1)c1cc(F)ccc1F (stereo not shown) [Example 30, 2-[[(4-Chlorophenyl)sulfonyl]-(2,5-difluorophenyl)methyl]thiazole]	163 to 164 °C
COc1ccc(-n2ccnc2C(c2cc(F)ccc2F)S(=O)(=O)c2ccc(Cl)cc2)cc1 (stereo not shown) [Example 31, 2-[[(4-Chlorophenyl)sulfonyl]-(2,5-difluorophenyl)methyl]-1-(4-methoxyphenyl)-1H-imidazole]	150 to 151 °C
O=S(=O)(c1ccc(Cl)cc1)C(c1cc(F)ccc1F)C1CCOCC1 (stereo not shown) [Example 34, 4-[[(4-Chlorophenyl)sulfonyl](2,5-difluorophenyl)methyl]tetrahydropyrane]	150 to 152 °C
